Results on three molecules are retold here after paper PMC10687080, “Resurrecting ancestral antibiotics: unveiling the origins of modern lipid II targeting glycopeptides” (Nature Communications, 2023).

Molecules are shown by their SMILES.

One experiment concerns the target T1, ANC1 (synthetic construct, UniProt Z9HSK4K2R8).
T1 construct: resurrected ancestral A-domain, N-terminal His6-SUMO, C-terminal STREP tag, co-expressed with Tcp13 in E. coli BL21(DE3); with MbtH-like protein Tcp13 (Actinoplanes teichomyceticus)
Nature of the experiment: NADH coupled pyrophosphate release assay. The class given is biochemical. The conditions noted are these: 1 mM substrate, 0.5 mM ATP, 10 mM MgCl2, pH 7.4, 30 °C.

The target in a further experiment is T2, ANC2 (ANC2int) (synthetic construct, UniProt Z9RCC4OUL6).
T2 construct: resurrected ancestral A-domain, N-terminal His6-SUMO, C-terminal STREP tag, co-expressed with Tcp13 in E. coli BL21(DE3); with MbtH-like protein Tcp13 (Actinoplanes teichomyceticus)
The experiment can be described thus: NADH coupled pyrophosphate release assay. The class given is biochemical. Particulars: 1 mM substrate, 0.5 mM ATP, 10 mM MgCl2, pH 7.4, 30 °C.

Take `N[C@@H](C(=O)O)c1ccc(O)cc1` [D-Hpg]: at ANC1, the “NADH coupled pyrophosphate release assay” value is reported as “with a fourfold preference for the L-form”.

For `CC(C)C[C@@H](N)C(=O)O` [D-Leu], at ANC2 (ANC2int), the “NADH coupled pyrophosphate release assay” value was “ANC2 and ANC3 were both selective for Leu”.

In the case of `CC(C)C[C@H](N)C(=O)O` [L-Leu], the “NADH coupled pyrophosphate release assay” value at ANC2 (ANC2int) was “ANC2 and ANC3 were both selective for Leu”.
